Experimental data published in US7964219B2, “Pharmaceutical compositions for controlled release delivery of biologically active compounds” (QPS, LLC, priority 2004, dated 2011).

Assays:
[1] = Release of octreotide in vivo in rats by implant retrieval (Example 14); parameters: species or system Sprague-Dawley male rats; details: PLGA/NMP vehicle, after 24 h
Method: Poly(DL-lactide-co-glycolide) (PLGA) was dissolved in N-methyl-2-pyrrolidone (NMP), or methoxypolyethylene glycohol (mPEG) to give a 40% solution by weight. The injectable formulations were prepared by dispersing octreotide phytate or acetate. The mixture was thoroughly mixed until a uniform suspension or solution was obtained. These formulations of octreotide (roughly about 100 uL) were administered subcutaneously in the back of the Sprague-Dawley male rats. The release of octreotide was determined by implant retrieval at predefined time intervals (30 min for group G and 24 h for groups A through F) after ministration and analysis of the octreotide remaining in the implant.

[2] = Stability of octreotide in injectable formulations at room temperature by HPLC (Example 13); assay type: physicochemical; details: PLGA/NMP vehicle, after 24 h
Method: The injectable polymer solutions were prepared by dispersing octreotide phytate or acetate or citrate. […] Injectable formulations were prepared as shown below.
It appears that both salt forms of octreotide and the solvent affect the stability of octreotide. In terms of the stability of octreotide, mPEG is preferred than NMP and phytate complex form of octreotide is preferred than acetate and citrate salt of octreotide.

[3] = Stability of octreotide in injectable formulations at room temperature by HPLC (Example 12)
Method: Injectable formulations of octreotide were prepared by dispersing octreotide in polymer solution in an appropriate solvent. […] The mixture was thoroughly mixed until a uniform suspension or solution was obtained. Six injectable formulations were prepared as shown below.
The stability of octreotide in the above injectable formulations at room temperature was monitored by HPLC and the results are shown in the table below.

Row | Structure (SMILES) | degradation/reaction of octreotide in vivo [1] [%] | degradation/reaction of octreotide in vitro [2] [%] | octreotide degraded or acylated ([3]; PLGA solution in NMP, room temperature) [%] | Stability of octreotide (degraded or reacted) ([3]; after three days at room temperature)
1 | C[C@@H](O)[C@@H]1NC(=O)[C@H](CCCCN)NC(=O)[C@@H](Cc2c[nH]c3ccccc23)NC(=O)[C@H](Cc2ccccc2)NC(=O)[C@@H](NC(=O)[C@H](N)Cc2ccccc2)CSSC[C@@H](C(=O)N[C@H](CO)[C@@H](C)O)NC1=O [octreotide] | 30 | 85 | – | –
2 | C[C@@H](O)[C@@H]1NC(=O)[C@H](CCCCN)NC(=O)[C@@H](Cc2c[nH]c3ccccc23)NC(=O)[C@H](Cc2ccccc2)NC(=O)[C@@H](NC(=O)[C@H](N)Cc2ccccc2)CSSC[C@@H](C(=O)N[C@H](CO)[C@@H](C)O)NC1=O [octreotide acetate] | – | – | ~100 | significant amount of the octreotide was degraded or reacted
